Measurements: PubChem BioAssay (NCI)
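Growth conditions: 96-well plates. Treatment: test compound, 48 hours, 5 concentrations. Analysis: linear interpolation between bracketing concentrations; unreached endpoints set to highest concentration. TGI: concentration producing complete growth inhibition.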

Columns and labels:
Assay in all cases: NCI-60 cell line screen, 48 h
786-0 renal = test system: 786-0 renal
A498 renal = test system: A498 renal
A549 NSCLC = test system: A549 NSCLC
ACHN renal = test system: ACHN renal
CAKI-1 renal = test system: CAKI-1 renal
CCRF-CEM leukemia = test system: CCRF-CEM leukemia
COLO 205 colon = test system: COLO 205 colon
DLD-1 colon = test system: DLD-1 colon
DMS 114 small cell lung = test system: DMS 114 small cell lung
DMS 273 small cell lung = test system: DMS 273 small cell lung
EKVX NSCLC = test system: EKVX NSCLC
HCC-2998 colon = test system: HCC-2998 colon
HCT-116 colon = test system: HCT-116 colon
HCT-15 colon = test system: HCT-15 colon
HL-60(TB) leukemia = test system: HL-60(TB) leukemia
HOP-18 NSCLC = test system: HOP-18 NSCLC
HOP-62 NSCLC = test system: HOP-62 NSCLC
HOP-92 NSCLC = test system: HOP-92 NSCLC
HT29 colon = test system: HT29 colon
IGROV1 ovarian = test system: IGROV1 ovarian
K-562 leukemia = test system: K-562 leukemia
KM12 colon = test system: KM12 colon
KM20L2 colon = test system: KM20L2 colon
LOX IMVI melanoma = test system: LOX IMVI melanoma
LXFL 529 NSCLC = test system: LXFL 529 NSCLC
M14 melanoma = test system: M14 melanoma
M19-MEL melanoma = test system: M19-MEL melanoma
MALME-3M melanoma = test system: MALME-3M melanoma
MOLT-4 leukemia = test system: MOLT-4 leukemia
NCI-H226 lung = test system: NCI-H226 lung
NCI-H23 lung = test system: NCI-H23 lung
NCI-H460 lung = test system: NCI-H460 lung
NCI-H522 lung = test system: NCI-H522 lung
OVCAR-3 ovarian = test system: OVCAR-3 ovarian
OVCAR-4 ovarian = test system: OVCAR-4 ovarian
OVCAR-5 ovarian = test system: OVCAR-5 ovarian
OVCAR-8 ovarian = test system: OVCAR-8 ovarian
RPMI-8226 leukemia = test system: RPMI-8226 leukemia
RXF 393 renal = test system: RXF 393 renal
SF-268 CNS = test system: SF-268 CNS
SF-295 CNS = test system: SF-295 CNS
SF-539 CNS = test system: SF-539 CNS
SK-MEL-2 melanoma = test system: SK-MEL-2 melanoma
SK-MEL-28 melanoma = test system: SK-MEL-28 melanoma
SK-MEL-5 melanoma = test system: SK-MEL-5 melanoma
SK-OV-3 ovarian = test system: SK-OV-3 ovarian
SN12C renal = test system: SN12C renal
SNB-19 CNS = test system: SNB-19 CNS
SNB-75 CNS = test system: SNB-75 CNS
SNB-78 CNS = test system: SNB-78 CNS
SR leukemia = test system: SR leukemia
SW-620 colon = test system: SW-620 colon
TK-10 renal = test system: TK-10 renal
U251 CNS = test system: U251 CNS
UACC-257 melanoma = test system: UACC-257 melanoma
UACC-62 melanoma = test system: UACC-62 melanoma
UO-31 renal = test system: UO-31 renal
XF 498 CNS = test system: XF 498 CNS

Measured: TGI

N#CNC(=NCc1ccccc1)NCc1ccccc1
69 µM: SR leukemia
> 56 µM: DMS 273 small cell lung
> 70.7 µM: U251 CNS
> 89 µM: RXF 393 renal
> 55.8 µM: HCT-15 colon
48.6 µM: SF-268 CNS
> 96.3 µM: M19-MEL melanoma
33.6 µM: HCT-116 colon
> 53.4 µM: DMS 114 small cell lung
> 71 µM: DLD-1 colon
> 62.7 µM: SW-620 colon
> 57.3 µM: COLO 205 colon
> 100 µM: all other assays above

CC1(O)C(C)(O)C(C)(O)C1(C)O (centres undefined)
not listed: RPMI-8226 leukemia | SR leukemia
> 100 µM: all other assays above
